# In US20160145247A1, “Aminomethyl-Biaryl Derivatives Complement Factor D inhibitors and uses thereof” (NOVARTIS AG, priority 2013, published 2016):
# Biological target: T1, factor D (Homo sapiens, UniProt P00746)
# T1 construct: made in house; host or cells: E. coli
# Assay: factor D inhibition assay of Biological Example 2
# Assay type: biochemical
# T1 sequence (P00746 26-253): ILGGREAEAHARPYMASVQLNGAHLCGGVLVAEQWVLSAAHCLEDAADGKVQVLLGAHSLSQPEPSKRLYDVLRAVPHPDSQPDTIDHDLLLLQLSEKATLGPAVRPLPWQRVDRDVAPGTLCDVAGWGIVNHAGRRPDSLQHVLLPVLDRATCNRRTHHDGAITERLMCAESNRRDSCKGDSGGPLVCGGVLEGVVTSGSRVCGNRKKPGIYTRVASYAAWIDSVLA
compound,measurement,value
"CC(C)CC(=O)Nc1cc(C(=O)Nc2ccccc2CC(=O)O)cc(-c2cc(F)cc(CN)c2)c1 [Example 98, 2-(2-(3′-(Aminomethyl)-5′-fluoro-5-(3-methylbutanamido)-[1,1′-biphenyl]-3-ylcarboxamido)phenyl)acetic acid]",IC50,4 nM
"NCc1cccc(-c2cccc(OCc3ccccc3CC(=O)O)n2)c1 [Example 99-C, 2-(2-(((6-(3-(Aminomethyl)phenyl)pyridin-2-yl)oxy)methyl)phenyl)acetic acid]",IC50,1850 nM
"NCc1cccc(-c2cc(Cl)cc(COc3ccccc3CC(=O)O)c2)c1 [Example 102-B, 2-(2-((3′-(Aminomethyl)-5-chloro-[1,1′-biphenyl]-3-yl)methoxy)phenyl)acetic acid]",IC50,9 nM
"NCc1cccc(-c2cc(COc3ccccc3CC(=O)O)cc(C3CC3)c2)c1 [Example 103-B, 2-(2-((3′-(Aminomethyl)-5-cyclopropyl-[1,1′-biphenyl]-3-yl)methoxy)phenyl)acetic acid]",IC50,10 nM
"CCc1cc(COc2ccccc2CC(=O)O)cc(-c2cccc(CN)c2)c1 [Example 104, 2-(2-((3′-(aminomethyl)-5-ethyl-[1,1′-biphenyl]-3-yl)methoxy)phenyl)acetic acid]",IC50,6 nM
"NCc1cccc(-c2cc(CCO)cc(COc3ccccc3CC(=O)O)c2)c1 [Example 105-C, 2-(2-((3′-(Aminomethyl)-5-(2-hydroxyethyl)-[1,1′-biphenyl]-3-yl)methoxy)phenyl)acetic acid]",IC50,15 nM
"NCc1cccc(-c2cc(CCC3CC3)cc(COc3ccccc3CC(=O)O)c2)c1 [Example 107-C, 2-(2-((3′-(Aminomethyl)-5-(2-cyclopropylethyl)-[1,1′-biphenyl]-3-yl)methoxy)phenyl)acetic acid]",IC50,2 nM
"N[C@H](CO)c1cccc(-c2cc(Cl)cc(COc3ccccc3CC(=O)O)c2)c1 [Example 108-B, (S)-2-(2-((3′-(1-Amino-2-hydroxyethyl)-5-chloro-[1,1′-biphenyl]-3-yl)methoxy)phenyl)acetic acid]",IC50,7 nM
"N[C@H](CO)c1cccc(-c2cc(COc3ccccc3CC(=O)O)cc(C3CC3)c2)c1 [Example 109-B, (S)-2-(2-((3′-(1-Amino-2-hydroxyethyl)-5-cyclopropyl-[1,1′-biphenyl]-3-yl)methoxy)phenyl)acetic acid]",IC50,22 nM
"CCc1cc(COc2ccccc2CC(=O)O)cc(-c2cccc([C@H](N)CO)c2)c1 [Example 110-C, (S)-2-(2-((3′-(1-Amino-2-hydroxyethyl)-5-ethyl-[1,1′-biphenyl]-3-yl)methoxy)phenyl)acetic acid]",IC50,30 nM
"Cc1cc(COc2ccccc2CC(=O)O)cc(-c2cccc([C@H](N)CO)c2)c1 [Example 112-B, (S)-2-(2-((3′-(1-Amino-2-hydroxyethyl)-5-methyl-[1,1′-biphenyl]-3-yl)methoxy)phenyl)acetic acid]",IC50,7 nM
"N#Cc1cc(COc2ccccc2CC(=O)O)cc(-c2cccc(CN)c2)c1 [Example 113-B, 2-(2-((3′-(Aminomethyl)-5-cyano-[1,1′-biphenyl]-3-yl)methoxy)phenyl)acetic acid]",IC50,30 nM
"N[C@H](CO)c1cccc(-c2cc(COc3ccccc3CC(=O)O)cc(C(F)(F)F)c2)c1 [Example 114-B, (S)-2-(2-((3′-(1-Amino-2-hydroxyethyl)-5-(trifluoromethyl)-[1,1′-biphenyl]-3-yl)methoxy)phenyl)acetic acid]",IC50,6 nM
N[C@H](CO)c1cccc(-c2cc(F)cc(COc3ccccc3CC(=O)O)c2)c1 [Example 115-A],IC50,3 nM
CCOc1cc(COc2ccccc2CC(=O)O)cc(-c2cccc([C@H](N)CO)c2)c1 [Example 115-B],IC50,8 nM
N[C@H](CO)c1cccc(-c2cc(COc3ccccc3CC(=O)O)cc(OCC(F)(F)F)c2)c1 [Example 115-C],IC50,5 nM
C[C@@H](N)c1cccc(-c2cc(CO)cc(COc3ccccc3CC(=O)O)c2)c1 [Example 116-A],IC50,21 nM
NCc1cccc(-c2cc(COc3ccccc3CC(=O)O)cc(COc3ccccc3CC(=O)O)c2)c1 [Example 116-C],IC50,4 nM
CC(O)c1cc(COc2ccccc2CC(=O)O)cc(-c2cccc([C@@H](C)N)c2)c1 (stereo partly shown) [Example 116-F],IC50,5 nM
Cc1ccc(COc2ccccc2CC(=O)O)cc1-c1cccc([C@H](N)CO)c1 [Example 116-K],IC50,108 nM
Cc1c(COc2ccccc2CC(=O)O)cccc1-c1cccc([C@H](N)CO)c1 [Example 116-L],IC50,10300 nM
Cc1ccc(COc2ccccc2CC(=O)O)cc1-c1cccc([C@@H](C)N)c1 [Example 116-M],IC50,1230 nM
Cc1c(COc2ccccc2CC(=O)O)cccc1-c1cccc([C@@H](C)N)c1 [Example 116-N],IC50,52500 nM
"CCC[C@@H](N)c1cccc(-c2cc(CO)cc(COc3ccccc3CC(=O)O)c2)c1 [Example 117-B, (R)-2-(2-((3′-(1-Aminobutyl)-5-(hydroxymethyl)-[1,1′-biphenyl]-3-yl)methoxy)phenyl)acetic acid]",IC50,83 nM
"CCC[C@@H](N)c1cccc(-c2cc(COC)cc(COc3ccccc3CC(=O)O)c2)c1 [Example 118, (R)-2-(2-((3′-(1-Aminobutyl)-5-(methoxymethyl)-[1,1′-biphenyl]-3-yl)methoxy)phenyl)acetic acid]",IC50,67 nM
COCc1cc(COc2ccccc2CC(=O)O)cc(-c2cccc([C@@H](C)N)c2F)c1 [Example 120-A],IC50,15 nM
C[C@@H](N)c1cccc(-c2cc(CO)cc(COc3ccccc3CC(=O)O)c2)c1F [Example 120-B],IC50,55 nM
COCc1cc(COc2ccccc2CC(=O)O)cc(-c2cccc([C@@H](C)N)c2)c1 [Example 120-C],IC50,3 nM
COC(C)c1cc(COc2ccccc2CC(=O)O)cc(-c2cccc([C@@H](C)N)c2F)c1 (stereo partly shown) [Example 120-D],IC50,93 nM
COC(C)c1cc(COc2ccccc2CC(=O)O)cc(-c2cccc([C@H](N)CO)c2)c1 (stereo partly shown) [Example 120-E],IC50,17 nM
CC(O)c1cc(COc2ccccc2CC(=O)O)cc(-c2cccc([C@@H](C)N)c2F)c1 (stereo partly shown) [Example 120-F],IC50,8 nM
C[C@@H](N)c1cccc(-c2cc(COc3ccccc3CC(=O)O)cc(C(C)(C)O)c2)c1F [Example 120-G],IC50,13 nM
C[C@@H](N)c1cccc(-c2cc(COc3ccccc3CC(=O)O)cc(C(C)(C)O)c2)c1 [Example 120-H],IC50,10 nM
COCc1cc(COc2ccccc2CC(=O)O)cc(-c2cccc([C@H](C)N)c2F)c1 [Example 120-I],IC50,25 nM
CC(O)c1cc(COc2ccccc2CC(=O)O)cc(-c2cccc([C@H](C)N)c2F)c1 (stereo partly shown) [Example 120-J],IC50,23 nM
COCc1cc(COc2ccccc2CC(=O)O)cc(-c2cccc([C@H](C)N)c2)c1 [Example 120-K],IC50,190 nM
CC(O)c1cc(COc2ccccc2CC(=O)O)cc(-c2cccc([C@H](C)N)c2)c1 (stereo partly shown) [Example 120-L],IC50,280 nM
C[C@@H](N)c1cccc(-c2cc(COCC(F)(F)F)cc(COc3ccccc3CC(=O)O)c2)c1F [Example 120-M],IC50,11 nM
C[C@@H](N)c1cccc(-c2cc(COCC(F)(F)F)cc(COc3ccccc3CC(=O)O)c2)c1 [Example 120-N],IC50,15 nM
CC(C)OCc1cc(COc2ccccc2CC(=O)O)cc(-c2cccc([C@@H](C)N)c2F)c1 [Example 120-O],IC50,24 nM
CC(C)OCc1cc(COc2ccccc2CC(=O)O)cc(-c2cccc([C@@H](C)N)c2)c1 [Example 120-P],IC50,7 nM
CCOCc1cc(COc2ccccc2CC(=O)O)cc(-c2cccc([C@@H](C)N)c2F)c1 [Example 120-Q],IC50,17 nM
CCOCc1cc(COc2ccccc2CC(=O)O)cc(-c2cccc([C@@H](C)N)c2)c1 [Example 120-R],IC50,50 nM
C[C@@H](N)c1cccc(-c2cc(COc3ccccc3CC(=O)O)cc(COC3CCOc4ccc(Cl)cc43)c2)c1F (stereo partly shown) [Example 120-S],IC50,21 nM
C[C@@H](N)c1cccc(-c2cc(COc3ccccc3CC(=O)O)cc(COC3CCOc4ccc(Cl)cc43)c2)c1 (stereo partly shown) [Example 120-T],IC50,8 nM
C[C@@H](N)c1cccc(-c2cc(Br)cc(COc3ccccc3CC(=O)O)c2)c1F [Example 120-U],IC50,12 nM
COCCc1cc(COc2ccccc2CC(=O)O)cc(-c2cccc([C@@H](C)N)c2F)c1 [Example 120-V],IC50,9 nM
COCCc1cc(COc2ccccc2CC(=O)O)cc(-c2cccc([C@@H](C)N)c2)c1 [Example 120-W],IC50,13 nM
C[C@@H](N)c1cccc(-c2cc(COc3ccccc3CC(=O)O)cc(COC(F)F)c2)c1F [Example 120-X],IC50,4 nM
"N[C@H](CO)c1cccc(-c2cc(COc3ccccc3CC(=O)O)ccc2F)c1 [Example 122, (S)-2-(2-((3′-(1-Amino-2-hydroxyethyl)-6-fluoro-[1,1′-biphenyl]-3-yl)methoxy)phenyl)acetic acid]",IC50,15 nM
"N[C@H](CO)c1cccc(-c2cccc(COc3ccccc3CC(=O)O)c2F)c1 [Example 123, (S)-2-(2-((3′-(1-Amino-2-hydroxyethyl)-2-fluoro-[1,1′-biphenyl]-3-yl)methoxy)phenyl)acetic acid]",IC50,312 nM
"C[C@@H](N)c1cccc(-c2cc(COc3ccccc3CC(=O)O)ccc2F)c1 [Example 124, (R)-2-(2-((3′-(1-Aminoethyl)-6-fluoro-[1,1′-biphenyl]-3-yl)methoxy)phenyl)acetic acid]",IC50,99 nM
"C[C@@H](N)c1cccc(-c2cccc(COc3ccccc3CC(=O)O)c2F)c1 [Example 125, (R)-2-(2-((3′-(1-Aminoethyl)-2-fluoro-[1,1′-biphenyl]-3-yl)methoxy)phenyl)acetic acid]",IC50,4450 nM
"NCc1cccc(-c2cc(COc3ccccc3CC(=O)O)cc3c2OCO3)c1 [Example 126-B, 2-(2-((7-(3-(Aminomethyl)phenyl)benzo[d][1,3]dioxol-5-yl)methoxy)phenyl)acetic acid]",IC50,3 nM
"COc1ccc(COc2ccccc2CC(=O)O)cc1-c1cccc([C@H](N)CO)c1 [Example 127-B, (S)-2-(2-((3′-(1-Amino-2-hydroxyethyl)-6-methoxy-[1,1′-biphenyl]-3-yl)methoxy)phenyl)acetic acid]",IC50,62 nM
